Laboratory results taken from patent US5300279A, “Organic amine phosphonic acid complexes for the treatment of calcific tumors” (The Dow Chemical Company, priority 1990, dated 1994).
Read-outs that look alike come from different tables or passages of the source.

How the values were obtained:
[1] = biolocalization of the radionuclide in rats (tissue distribution after tail vein injection); type: in vivo, male Sprague Dawley rats; conditions: Sm-153, rats
Method: Studies to determine the qualitative biodistribution of the various radionuclides were conducted by injecting the compositions into rats and obtaining the gamma ray images of the entire animal at various times up to two hours after injection.
Laboratory rats were injected with the above complex (50-100 μl) via the tail vein. After 2 hours, the animals were sacrificed by cervical dislocation and organs and tissues removed. Samples were counted with a NaI counter to determine the biolocalization of the radionuclide.

[2] = From the text: Quantitative biodistributions were obtained by injecting 50-100 microliters of the composition into the tail vein of unanesthetized male Sprague Dawley rats. The rats were then placed in cages lined with absorbent paper in order to collect all urine excreted prior to sacrifice. After a given period of time, the rats were sacrificed by cervical dislocation and the various tissues dissected. The samples were then rinsed with saline, blotted dry on absorbent paper and weighed. The radioactivity in the samples was measured with a NaI scintillation counter.
Whenever in the following examples and tables data is presented on the administered dose of radioactivity, the numbers given represent the percentage of the administered dose which localized in the indicated tissue. The ratios of radioactivity observed in bone relative to blood and muscle were calculated based on the percent dose per gram in the bone and in the blood and muscle. Whenever the ratios of radioactivity found in bone to that found in nonosseous tissue is given, the calculation was made as indicated above on a percent dose per gram basis.
A series of rats was injected with compositions containing Sm-153 EDTMP (compositions prepared as in Example 2) and sacrified in groups of five at various intervals.

tumor [3] = test system: tumor
Method: (§1) An English Setter with a tumor in his pelvis was injected with approximately 19 mCi of a composition containing Sm-153-EDTMP. After 2 hours, the dog was imaged using a scintillation camera.
An Irish Setter with a tumor in the femur was injected with a composition containing Sm-153-EDTMP. The leg was amputated and samples of the tumor and normal bone were analyzed for Sm-153.
(§2) An Irish setter with undifferentiated sarcoma metastatic to bone was treated with 16 mCi (0.57 mCi/kg) of a composition containing Sm-153-EDTMP. […] After approximately 3 months, when signs of lameness began to reappear, the dog was given a second treatment of 15 mCi (0.49 mCi/kg), of a composition containing Sm-153-EDTMP.

tumor [4] = test system: tumor; remark: listed apart in the source
Method: as §1, §2
A female Irish Wolfhound with a possible osteosarcoma on the left distal radius was injected with a composition containing ^166 Ho-EDTMP (0.97 mCi/kg).

[5] = test system: white blood cells and platelets; conditions: for platelet and white blood cell levels: 2-3 weeks after administration
Method: A series of normal beagles was treated with various dose levels of a composition containing Sm-153-EDTMP. White blood cell and platelet counts were measured weekly to check for signs of bone marrow supression.

[6] = remark: listed apart in the source
Method: Sterile pyrogen-free vials were prepared to contain 210 mg of EDTMP and 140 mg NAOH by freeze-drying a solution containing appropriate amounts of EDTMP and NAOH. The vials were sealed under vacuum. To prepare one of the compositons of the invention, 6 ml of a solution containing Sm-153 (approximately 3×10^-4 M in Sm) in 0.1M HCl was injected into the sealed vial through a septum.
Urine was collected and counted to determine the percentage of the radioactivity excreted as a function of time after injection.

[7] = humans
[8] = 2 hours, ratio of percent dose per gram, average of 5 rats
[9] = Irish setter, nine months after second treatment

SMILES: O=P([O-])(O)CN(CCN(CP(=O)([O-])O)CP(=O)(O)O)CP(=O)([O-])O.[153Sm+3] [Example 2]
- scintillation scans [1]: the radioactivity concentrating in the skeletal system
- clearance of radioactivity through the kidneys into the urine ([1]; 2 hours): Most of the radioactivity not found in the skeleton was cleared through the kidneys into the urine
- radioactivity concentrated in the skeletal system ([1]; 2 hours): 55-65%
- soft tissue uptake ([1]; 2 hours): very little soft tissue uptake
- % Dose in Blood ([1]; 2 hours, average of 5 rats): 0.032 % Dose
- % Dose in Liver ([1]; 2 hours, average of 5 rats): 0.25 % Dose
- % Dose in Skeleton ([1]; 2 hours, average of 5 rats): 58 % Dose
- % Dose in Urine ([1]; 2 hours, average of 5 rats): 49 % Dose
- Bone/Blood [1, 8]: 1800
- Bone/Muscle [1, 8]: 1500
- Average Percent of Injected Dose, Blood ([2]; 1 Hour): .532% of Injected Dose
- Average Percent of Injected Dose, Kidneys ([2]; 1 Hour): .466% of Injected Dose
- Average Percent of Injected Dose, Liver ([2]; 1 Hour): .322% of Injected Dose
- Average Percent of Injected Dose, Skeleton ([2]; 1 Hour): 58% of Injected Dose
- Average Percent of Injected Dose, Urine ([2]; 1 Hour): 47% of Injected Dose
- Bone/Blood ([2]; 1 Hour): 120
- Bone/Muscle ([2]; 1 Hour): 300
- Average Percent of Injected Dose, Blood ([2]; 2 Hours): .032% of Injected Dose
- Average Percent of Injected Dose, Kidneys ([2]; 2 Hours): .254% of Injected Dose
- Average Percent of Injected Dose, Liver ([2]; 2 Hours): .252% of Injected Dose
- Average Percent of Injected Dose, Skeleton ([2]; 2 Hours): 58% of Injected Dose
- Average Percent of Injected Dose, Urine ([2]; 2 Hours): 49% of Injected Dose
- Bone/Blood ([2]; 2 Hours): 1800
- Bone/Muscle ([2]; 2 Hours): 1500
- Average Percent of Injected Dose, Blood ([2]; 5 Hours): .008% of Injected Dose
- Average Percent of Injected Dose, Kidneys ([2]; 5 Hours): .364% of Injected Dose
- Average Percent of Injected Dose, Liver ([2]; 5 Hours): .370% of Injected Dose
- Average Percent of Injected Dose, Skeleton ([2]; 5 Hours): 59% of Injected Dose
- Average Percent of Injected Dose, Urine ([2]; 5 Hours): 46% of Injected Dose
- Bone/Blood ([2]; 5 Hours): 4200
- Bone/Muscle ([2]; 5 Hours): 3600
- Average Percent of Injected Dose, Blood ([2]; 15 Min.): 5.852% of Injected Dose
- Average Percent of Injected Dose, Kidneys ([2]; 15 Min.): 1.745% of Injected Dose
- Average Percent of Injected Dose, Liver ([2]; 15 Min.): .959% of Injected Dose
- Average Percent of Injected Dose, Skeleton ([2]; 15 Min.): 48% of Injected Dose
- Average Percent of Injected Dose, Urine ([2]; 15 Min.): 28% of Injected Dose
- Bone/Blood ([2]; 15 Min.): 7
- Bone/Muscle ([2]; 15 Min.): 30
- Average Percent of Injected Dose, Blood ([2]; 24 Hours): .007% of Injected Dose
- Average Percent of Injected Dose, Kidneys ([2]; 24 Hours): .250% of Injected Dose
- Average Percent of Injected Dose, Liver ([2]; 24 Hours): .349% of Injected Dose
- Average Percent of Injected Dose, Skeleton ([2]; 24 Hours): 52% of Injected Dose
- Average Percent of Injected Dose, Urine ([2]; 24 Hours): 55% of Injected Dose
- Bone/Blood ([2]; 24 Hours): 6700
- Bone/Muscle ([2]; 24 Hours): 2400
- Average Percent of Injected Dose, Blood ([2]; 30 Min.): 2.304% of Injected Dose
- Average Percent of Injected Dose, Kidneys ([2]; 30 Min.): .805% of Injected Dose
- Average Percent of Injected Dose, Liver ([2]; 30 Min.): .526% of Injected Dose
- Average Percent of Injected Dose, Skeleton ([2]; 30 Min.): 53% of Injected Dose
- Average Percent of Injected Dose, Urine ([2]; 30 Min.): 42% of Injected Dose
- Bone/Blood ([2]; 30 Min.): 20
- Bone/Muscle ([2]; 30 Min.): 70
- Average Percent of Injected Dose, Blood ([2]; 48 Hours): .006% of Injected Dose
- Average Percent of Injected Dose, Kidneys ([2]; 48 Hours): .286% of Injected Dose
- Average Percent of Injected Dose, Liver ([2]; 48 Hours): .458% of Injected Dose
- Average Percent of Injected Dose, Skeleton ([2]; 48 Hours): 60% of Injected Dose
- Average Percent of Injected Dose, Urine ([2]; 48 Hours): 50% of Injected Dose
- Bone/Blood ([2]; 48 Hours): 8200
- Bone/Muscle ([2]; 48 Hours): 2800
- Average Percent of Injected Dose, Blood ([2]; 72 Hours): .006% of Injected Dose
- Average Percent of Injected Dose, Kidneys ([2]; 72 Hours): .216% of Injected Dose
- Average Percent of Injected Dose, Liver ([2]; 72 Hours): .492% of Injected Dose
- Average Percent of Injected Dose, Skeleton ([2]; 72 Hours): 57% of Injected Dose
- Average Percent of Injected Dose, Urine ([2]; 72 Hours): 53% of Injected Dose
- Bone/Blood ([2]; 72 Hours): 7800
- Bone/Muscle ([2]; 72 Hours): 3400
- clearance of the radioactivity from the skeletal system ([2]; rats, up to 72 hours, words): no significant clearance of the radioactivity from the skeletal system
- blood clearance ([2]; rats, words): rapid blood clearance
- uptake of the radioactivity in bone ([2]; rats, words): rapid uptake of the radioactivity in bone
- uptake of radioactivity in the area of the tumor (scintillation scan) (tumor [3]; English Setter, tumor in pelvis, approximately 19 mCi, 2 hours): high uptake of radioactivity in the area of the tumor
- scans compared with Tc-99m-MDP (tumor [3]; English Setter, 2 hours): looked very similar to an earlier scan performed using Tc-99m-MDP
- lesion to normal bone ratio (tumor [3]; English Setter, compared with Tc-99m): very similar to that for To-99m
- amount of Sm-153 in the tumor relative to non-lesionous bone, per gram basis (tumor [3]; Irish Setter, tumor in femur, same leg): 15-20 times
- scans compared with Tc-99m-MDP (tumor [3]; Irish setter, sarcoma metastatic to bone): very similar to scans obtained earlier using Tc-99m-MDP
- uptake of Sm-153 in the area of the lesion (scintillation scans) (tumor [3]; Irish setter, sarcoma metastatic to bone, 16 mCi (0.57 mCi/kg)): high uptake of Sm-153 in the area of the lesion
- pain / mobility (tumor [4]; English Setter, approximately 19 mCi, seven days after treatment): appeared to be in less pain as evidenced by an increase in its mobility
- pain / mobility / lameness (tumor [4]; Irish setter, 16 mCi (0.57 mCi/kg), seven days after treatment): appeared to be in less pain as evidenced by an increase in mobility and a decrease in lameness
- time until signs of lameness began to reappear (tumor [4]; Irish setter, after first treatment 16 mCi (0.57 mCi/kg)): approximately 3 months
- lameness and general health (tumor [4]; Irish setter, eight months after second treatment): no recurrence of lameness, had gained weight and appeared healthy
- regression of bone lesions (X-rays) (tumor [4]; Irish setter, five months after second treatment): significant regression of bone lesions
- death (tumor [4]; [9]): died of kidney failure
- total necropsy (tumor [4]; [9]): no evidence of cancer
- mobility / lameness after second treatment (tumor [4]; Irish setter, second treatment 15 mCi (0.49 mCi/kg), seven days): general increase in mobility and decrease in lameness
- platelet and white blood cell levels ([5]; 0.5 mCi Sm-153/kg): smaller decrease in the levels of platelets and white blood cells
- time to return of white cells and platelets to normal levels ([5]; 0.5 mCi Sm-153/kg, few animals that fell below normal): 4-5 weeks
- time to return of white cells and platelets to normal levels ([5]; 1.0 mCi Sm-153/kg): 4-5 weeks
- platelet and white blood cell levels ([5]; 1.0 mCi Sm-153/kg): slight decrease in both platelets and white blood cells
- Percent Excretion in Urine, Average ([6]; 1 Hr., average of 5 patients): 26.13%
- Percent Excretion in Urine, Average ([6]; 2 Hr., average of 5 patients): 7.15%
- Percent Excretion in Urine, Average ([6]; 4-8 Hr., average of 5 patients): 9.02%
- Percent Excretion in Urine, Average ([6]; 4 Hr., average of 5 patients): 10.95%
- Percent Excretion in Urine, Average ([6]; 8-12 Hr., average of 5 patients): 1.76%
- Percent Excretion in Urine, Average ([6]; 12-24 Hr., average of 5 patients): 1.07%
- Percent Excretion in Urine, 24 Hr Total, Average ([6]; 24 Hr Total, average of 5 patients): 56.09%
- clearance of radioactivity into the urine ([6]; humans, words): cleared rapidly
- blood profiles (white blood cell, red blood cell, platelet count) and serum chemistry profiles ([7]; post-injection vs preinjection): No significant changes
- vital signs ([7]; several post injection times vs preinjection): not significantly different than preinjection values
